From ChEMBL document CHEMBL1140250, “6-Aryl-4-methylsulfanyl-2H-pyran-2-one-3-carbonitriles as PPAR-gamma activators” (Bioorg Med Chem Lett, 2005)

How the values were obtained:
Format in all cases: functional
[1] = molecular target: T1, Peroxisome proliferator-activated receptor gamma (Homo sapiens) (UniProt P37231); experiment: In vitro agonist activity against human PPAR-gamma in transactivation assay at 10 nM
T1 sequence (whole entry): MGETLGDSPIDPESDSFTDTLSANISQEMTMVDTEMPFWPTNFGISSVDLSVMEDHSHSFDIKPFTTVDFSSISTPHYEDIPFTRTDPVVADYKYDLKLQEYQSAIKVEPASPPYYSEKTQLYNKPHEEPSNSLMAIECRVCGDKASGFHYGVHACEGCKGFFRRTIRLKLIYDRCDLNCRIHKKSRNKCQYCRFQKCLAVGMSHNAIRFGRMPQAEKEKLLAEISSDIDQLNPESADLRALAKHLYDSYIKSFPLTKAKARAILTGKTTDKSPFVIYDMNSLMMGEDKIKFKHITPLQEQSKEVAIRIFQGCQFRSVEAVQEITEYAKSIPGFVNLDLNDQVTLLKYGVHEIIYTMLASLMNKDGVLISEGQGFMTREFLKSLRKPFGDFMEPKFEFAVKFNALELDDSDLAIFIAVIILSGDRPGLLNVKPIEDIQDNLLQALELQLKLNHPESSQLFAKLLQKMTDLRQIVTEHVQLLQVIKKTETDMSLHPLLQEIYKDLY

[2] = molecular target: T1, Peroxisome proliferator-activated receptor gamma (Homo sapiens); experiment: In vitro agonist activity against human PPAR-gamma in transactivation assay at 100 nM
[3] = molecular target: T1, Peroxisome proliferator-activated receptor gamma (Homo sapiens); experiment: In vitro agonist activity against human PPAR-gamma receptor in transactivation assay at 1000 nM

Compound | Fold activation [1] | Fold activation [2] | Fold activation [3]
CSc1cc(-c2ccc(OCCN(Cc3ccccc3)SC)cc2)oc(=O)c1C#N | 4 | 6 | 7
CCSCCOc1ccc(-c2cc(SCC)c(C#N)c(=O)o2)cc1 | 7 | 11 | 30
CSc1cc(-c2ccc(OCCc3nccc4c3CCCC4)cc2)oc(=O)c1C#N | 4 | 5 | 19
CSc1cc(-c2ccc(OCCN(C)Cc3ccccc3)cc2)oc(=O)c1C#N | 5 | 4 | 7
CSCCOc1ccc(-c2cc(SC)c(C#N)c(=O)o2)cc1 | 12 | 22 | 60
CSc1cc(-c2ccc(OCN3CCOCC3)cc2)oc(=O)c1C#N | 3 | 4 | 5

Further lines, results first:

Fold activation [1] | Fold activation [2] | Fold activation [3] | Compound
9 | 13 | 44 | COC(=O)c1c(SC)cc(-c2ccc(OCCSC)cc2)oc1=O
4 | 6 | 7 | CSc1cc(-c2ccc(OCCN(C)C)cc2)oc(=O)c1C#N
3 | 2 | 16 | CSc1cc(-c2ccc(OCCN3CCCCC3)cc2)oc(=O)c1C#N
3 | 5 | 14 | CSc1cc(-c2ccc(OCCSc3ccccc3)cc2)oc(=O)c1C#N
9 | 14 | 27 | C[S+]([O-])CCOc1ccc(-c2cc([S+](C)[O-])c(C#N)c(=O)o2)cc1 (centres undefined)
3 | 3 | 17 | COC(=O)c1c(SC)cc(-c2ccc(OCCN3CCCCC3)cc2)oc1=O
9 | 28 | 176 | CN(CCOc1ccc(CC2SC(=O)NC2=O)cc1)c1ccccn1 (centres undefined)
